Results reported in US8716324B2, “Tricyclic indeno-pyrrole derivatives as serotonin receptor modulators” (Athersys, Inc., priority 2004, dated 2014).

Target: human 5HT2c receptor (VSV Isoform) (Homo sapiens, UniProt P28335, I156V/I160V/N158S)
Experiment: cell-based
Conditions: 5-HT2c EC50 (hVSV, μM)

Chain of human 5HT2c receptor (VSV Isoform) (P28335 33-458 I156V/N158S/I160V limits assumed): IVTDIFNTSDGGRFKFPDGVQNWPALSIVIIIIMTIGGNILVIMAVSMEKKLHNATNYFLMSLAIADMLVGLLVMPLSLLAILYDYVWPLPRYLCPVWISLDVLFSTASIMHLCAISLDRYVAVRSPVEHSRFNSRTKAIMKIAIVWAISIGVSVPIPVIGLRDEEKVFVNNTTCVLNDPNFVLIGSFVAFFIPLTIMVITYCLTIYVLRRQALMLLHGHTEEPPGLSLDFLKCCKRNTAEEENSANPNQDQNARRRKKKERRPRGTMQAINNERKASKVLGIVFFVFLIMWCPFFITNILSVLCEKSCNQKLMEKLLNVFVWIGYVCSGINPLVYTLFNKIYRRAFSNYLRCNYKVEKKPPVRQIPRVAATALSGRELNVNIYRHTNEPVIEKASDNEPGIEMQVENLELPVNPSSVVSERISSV

Structure (SMILES)	EC50 [µM]
COc1ccc2c(c1)C1CNCC1C2C (single isomer, unassigned) [1, Enantiomer 2]	< 1
CC1c2ccc(O)cc2C2CNCC12 (single isomer, unassigned) [2, Enantiomer 1]	< 1
CC1c2ccc(O)cc2C2CNCC12 (single isomer, unassigned) [2, Enantiomer 2]	< 0.1
COc1cc2c(cc1Cl)C(C)C1CNCC21 (single isomer, unassigned) [3, Enantiomer 2]	< 0.1
CC1c2cc(Cl)c(O)cc2C2CNCC12 (single isomer, unassigned) [4, Enantiomer 2]	< 0.1
CC1c2cc(Cl)ccc2C2CNCC12 (single isomer, unassigned) [5, Enantiomer 1]	< 1
CC1c2cc(Cl)c(OCc3ccc(F)cc3)cc2C2CNCC12 (single isomer, unassigned) [6, Enantiomer 2]	< 1
Cc1ccc2c(c1)C(C)C1CNCC21 (single isomer, unassigned) [15, Enantiomer 1]	< 0.1
Cc1ccc2c(c1)C(C)C1CNCC21 (single isomer, unassigned) [15, Enantiomer 2]	< 1
Cc1cc2c(cc1Cl)C(C)C1CNCC21 (single isomer, unassigned) [21, Enantiomer 1]	< 1
Cc1cc2c(cc1Cl)C(C)C1CNCC21 (single isomer, unassigned) [21, Enantiomer 2]	< 0.1
Cc1cc2c(cc1Cl)C1CNCC1C2C (single isomer, unassigned) [23, Enantiomer 1]	< 1
Cc1cc2c(cc1Cl)C1CNCC1C2C (single isomer, unassigned) [23, Enantiomer 2]	< 0.1
COc1ccc2c(c1Cl)C1CNCC1C2C (single isomer, unassigned) [25, Enantiomer 2]	< 1
CC1c2cc(Cl)c(Cl)cc2C2CNCC12 (single isomer, unassigned) [26, Enantiomer 1]	< 1
CC1c2cc(Cl)c(Cl)cc2C2CNCC12 (single isomer, unassigned) [26, Enantiomer 2]	< 0.1
CC1c2c(ccc(Cl)c2Cl)C2CNCC12 (single isomer, unassigned) [27, Enantiomer 1]	< 1
CC1c2c(ccc(Cl)c2Cl)C2CNCC12 (single isomer, unassigned) [27, Enantiomer 2]	< 0.1
CCOc1cc2c(cc1Cl)C(C)C1CNCC21 (single isomer, unassigned) [29, Enantiomer 2]	< 0.1
COc1cc2c(cc1Br)C(C)C1CNCC21 (single isomer, unassigned) [30, Enantiomer 2]	< 0.01
CC1c2cc(Br)c(O)cc2C2CNCC12 (single isomer, unassigned) [31, Enantiomer 2]	< 0.1
COc1cc2c(cc1-c1cccs1)C(C)C1CNCC21 (single isomer, unassigned) [32, Enantiomer 2]	> 10

Structure (SMILES)	EC50 [µM]
COc1cc2c(cc1C#N)C(C)C1CNCC21 (single isomer, unassigned) [33, Enantiomer 2]	< 1
COc1ccc2c(c1OC)C1CNCC1C2C (single isomer, unassigned) [34, Enantiomer 1]	< 1
COc1c(Cl)cc2c(c1OC)C1CNCC1C2C (single isomer, unassigned) [35, Enantiomer 1]	< 0.1
COc1cc2c(cc1OC)C1CNCC1C2C (single isomer, unassigned) [36, Enantiomer 1]	> 10
COc1cc2c(cc1OC)C1CNCC1C2C (single isomer, unassigned) [36, Enantiomer 2]	< 1
COc1cc2c(cc1Cl)CC1CNCC21 (single isomer, unassigned) [37, Enantiomer 1]	< 0.1
COc1c(Cl)cc2c(c1Cl)C1CNCC1C2C (single isomer, unassigned) [38, Enantiomer 1]	< 1
COc1c(Cl)cc2c(c1Cl)C1CNCC1C2C (single isomer, unassigned) [38, Enantiomer 2]	< 0.1
CC1c2ccc(Cl)c(Cl)c2C2CNCC12 (single isomer, unassigned) [41, Enantiomer 1]	< 1
CC1c2ccc(Cl)c(Cl)c2C2CNCC12 (single isomer, unassigned) [41, Enantiomer 2]	< 10
CC1c2c(ccc(Cl)c2F)C2CNCC12 (single isomer, unassigned) [42, Enantiomer 1]	< 10
CC1c2c(ccc(Cl)c2F)C2CNCC12 (single isomer, unassigned) [42, Enantiomer 2]	< 0.1
CC1c2ccc(OCc3ccccc3)cc2C2CNCC12 (single isomer, unassigned) [43, Enantiomer 2]	< 10
CC1c2ccc(OCc3ccccc3F)cc2C2CNCC12 (single isomer, unassigned) [44, Enantiomer 2]	< 10
CC1c2ccc(OCc3cccc(F)c3)cc2C2CNCC12 (single isomer, unassigned) [45, Enantiomer 2]	< 10
CC1c2ccc(OCc3ccc(F)cc3)cc2C2CNCC12 (single isomer, unassigned) [46, Enantiomer 2]	< 10
CC1c2ccc(-c3c(F)cccc3F)cc2C2CNCC12 (single isomer, unassigned) [47, Enantiomer 2]	> 10
COc1ccc2c(c1)C1CNCC1C2C (centres unmarked) [Example 1, 5-Methoxy-8-methyl-1,2,3,3a,8,8a-hexahydroindeno[1,2-c]pyrrole]	> 10
CC1c2ccc(O)cc2C2CNCC12 (centres unmarked) [Example 2, 5-Hydroxy-8-methyl-1,2,3,3a,8,8a-hexahydroindeno[1,2-c]pyrrole]	< 0.1
COc1cc2c(cc1Cl)C(C)C1CNCC21 (centres unmarked) [Example 3, 5-Methoxy-6-chloro-8-methyl-1,2,3,3a,8,8a-hexahydroindeno[1,2-c]pyrrole]	< 0.1
CC1c2cc(Cl)c(O)cc2C2CNCC12 (centres unmarked) [Example 4, 5-Hydroxy-6-chloro-8-methyl-1,2,3,3a,8,8a-hexahydroindeno[1,2-c]pyrrole]	< 1
CC1c2cc(Cl)ccc2C2CNCC12 (centres unmarked) [Example 5, 6-Chloro-8-methyl-1,2,3,3a,8,8a-hexahydroindeno[1,2-c]pyrrole]	< 0.1

Structure (SMILES)	EC50 [µM]
CC1c2cc(Cl)c(OCc3ccc(F)cc3)cc2C2CNCC12 (centres unmarked) [Example 6, 5-(4-Fluorobenzyloxy)-6-chloro-8-methyl-1,2,3,3a,8,8a-hexahydroindeno[1,2-c]pyrrole]	< 1
CC1c2cc(Cl)c(OCc3ccccc3)cc2C2CNCC12 (centres unmarked) [Example 7, 5-Benzyloxy-6-chloro-8-methyl-1,2,3,3a,8,8a-hexahydroindeno[1,2-c]pyrrole]	< 10
CC1c2cc(Cl)c(OCc3ccccc3F)cc2C2CNCC12 (centres unmarked) [Example 8, 5-(2-Fluorobenzyloxy)-6-chloro-8-methyl-1,2,3,3a,8,8a-hexahydroindeno[1,2-c]pyrrole]	< 10
CC1c2cc(Cl)c(OCc3cccc(F)c3)cc2C2CNCC12 (centres unmarked) [Example 9, 5-(3-Fluorobenzyloxy)-6-chloro-8-methyl-1,2,3,3a,8,8a-hexahydroindeno[1,2-c]pyrrole]	< 10
c1ccc2c(c1)CC1CNCC21 (centres unmarked) [Example 10, 1,2,3,3a,8,8a-Hexahydroindeno[1,2-c]pyrrole]	< 10
Clc1ccc2c(c1)CC1CNCC21 (centres unmarked) [Example 11, 6-Chloro-1,2,3,3a,8,8a-hexahydroindeno[1,2-c]pyrrole]	< 0.1
Fc1cccc(F)c1-c1ccc2c(c1)CC1CNCC21 (centres unmarked) [Example 12, 6-(2,6-Difluorophenyl)-1,2,3,3a,8,8a-hexahydroindeno[1,2-c]pyrrole]	> 10
Cc1ccc2c(c1)C1CNCC1C2C (centres unmarked) [Example 13, 5-Methyl-8-methyl-1,2,3,3a,8,8a-hexahydroindeno[1,2-c]pyrrole]	< 1
Cc1cccc2c1C1CNCC1C2C (centres unmarked) [Example 14, 4-Methyl-8-methyl-1,2,3,3a,8,8a-hexahydroindeno[1,2-c]pyrrole]	< 1
Cc1ccc2c(c1)C(C)C1CNCC21 (centres unmarked) [Example 15, 6-Methyl-8-methyl-1,2,3,3a,8,8a-hexahydroindeno[1,2-c]pyrrole]	< 1
Cc1cccc2c1C(C)C1CNCC21 (centres unmarked) [Example 16, 7-Methyl-8-methyl-1,2,3,3a,8,8a-hexahydroindeno[1,2-c]pyrrole]	< 1
CC1c2cccc(F)c2C2CNCC12 (centres unmarked) [Example 17, 4-Fluoro-8-methyl-1,2,3,3a,8,8a-hexahydroindeno[1,2-c]pyrrole]	< 10
CC1c2ccc(F)cc2C2CNCC12 (centres unmarked) [Example 18, 5-Fluoro-8-methyl-1,2,3,3a,8,8a-hexahydroindeno[1,2-c]pyrrole]	< 1
CC1c2cc(F)ccc2C2CNCC12 (centres unmarked) [Example 19, 6-Fluoro-8-methyl-1,2,3,3a,8,8a-hexahydroindeno[1,2-c]pyrrole]	< 1
CC1c2ccc(Cl)cc2C2CNCC12 (centres unmarked) [Example 20, 5-Chloro-8-methyl-1,2,3,3a,8,8a-hexahydroindeno[1,2-c]pyrrole]	< 10
Cc1cc2c(cc1Cl)C(C)C1CNCC21 (centres unmarked) [Example 21, 5-Methyl-6-chloro-8-methyl-1,2,3,3a,8,8a-hexahydroindeno[1,2-c]pyrrole]	< 0.1
Cc1cc2c(cc1Br)C(C)C1CNCC21 (centres unmarked) [Example 22, 5-Methyl-6-bromo-8-methyl-1,2,3,3a,8,8a-hexahydroindeno[1,2-c]pyrrole]	< 1
Cc1cc2c(cc1Cl)C1CNCC1C2C (centres unmarked) [Example 23, 5-Chloro-6-methyl-8-methyl-1,2,3,3a,8,8a-hexahydroindeno[1,2-c]pyrrole]	< 1
Cc1cc2c(cc1Br)C1CNCC1C2C (centres unmarked) [Example 24, 5-Bromo-6-methyl-8-methyl-1,2,3,3a,8,8a-hexahydroindeno[1,2-c]pyrrole]	< 1
CC1c2cc(Cl)c(Cl)cc2C2CNCC12 (centres unmarked) [Example 26, 5,6-Dichloro-8-methyl-1,2,3,3a,8,8a-hexahydroindeno[1,2-c]pyrrole]	< 0.1
CC1c2c(ccc(Cl)c2Cl)C2CNCC12 (centres unmarked) [Example 27, 6,7-Dichloro-8-methyl-1,2,3,3a,8,8a-hexahydroindeno[1,2-c]pyrrole]	< 0.1
